Source: patent US9457099B2, “Polyethylene glycol-based dendrons” (RUTGERS, THE STATE UNIVERSITY OF NEW JERSEY, priority 2010, dated 2016)

Experiments:
Cell viability MTT assay = assay type: cell-based; conditions: mouse, J774.E murine macrophage cells; 40 nM in HBSS for 2 hours; mean±standard deviation (n=6); read-out: cell relative viability (MTT)
Experimental: (1) Prepared MTT solution in PBS (pH 7.4) with final concentration of 5 mg/mL.
(2) Cultured J774.E muring macrophage cells with G3.0-Mannose, G3.0 and PAMAM G1.0, with each concentration of 40 nM, in HBSS for 2 hours. 6 replicates were applied. (n=6).
(3) Aspirated off the culture medium and washed with DPBS for three times for each well.
(4) 100 μL of HBSS and 25 μL of MIT solution were added to each well. Placed the plate in incubator at 37° C. overnight.
(5) Aspirated off the HBSS/MTT solution. Added 200 μL of DMSO for dissolving the crystals.
(6) Transferred to plate reader and measure the absorption at 570 nm.

[1] = test system: J774.E murine macrophage cells; assay: Quantitative macrophage uptake of dendrons (5-FAM fluorescence of cell lysate), with mannan inhibition; assay type: cell-based
Experimental: (§1) J774.E murine macrophage cells were grown as attached cells in a CO2 water-jacketed incubator (Form a Scientific Inc., Marietta, Ohio) with a humidified 5% CO2 atmosphere at 37° C. The cells were maintained in RPMI-1640 (GIBCO) containing 10% fetal bovine serum (FBS), 100 U/mL penicillin, and 100 μg/mL streptomycin/mL. The cells were seeded two days before experiment to 24-well plates at 0.5×10^5 cells/well for quantitative uptake measurement or to chambered coverglass (LAB-TEK II) at 1×10^5 cell/chamber for confocal microscopy. Cells were incubated with G3.0-Mannose (40 nM) in HBSS at 37° C. for 1 hr. For confocal microscopy, the incubation included the additional 0.16 mg/mL of the general endocytosis marker rhodamine B-labeled dextran (10,000 MW) and the nuclear dye DAPI. For Mannan inhibition studies, cells were pre-incubated with mannan (10 mg/mL) for 1 hr, followed by incubation with G3.0-Mannose, with or without rhodamine B-dextran/DAPI plus 10 mg/mL of mannan. After incubation, the unbound molecules were washed thrice using cold DPBS buffer. PEGtide dendron G3.0 (40 nM) (without mannose) was used as a negative control of mannose receptor-mediated cellular uptake.
(§2) In quantitative uptake experiments, the washed cells were lysed in wells overnight with 150 μL of 1 N NaOH solution and neutralized the next day with 150 μL of 1 N HCl solution, resulting in 300 μL of cell lysate/well. 250 μL of cell lysate was transferred to a well of a 96-well plate for 5-FAM fluorescence measurement on Tecan GENIOS fluorescent plate reader (Phenix Research Products, Hayward, Calif.). The total cell-associated fluorescence reading was converted into total cell-associated dendron amount using a separately established dendron's fluorescence standard curve. A small fraction of the lysate (about 50 μL, depending on cell density plated) was used to determine total cellular protein/well by Bradford Protein Assay. The total cellular protein/well was used to normalize the dendron amount/well to correct well-to-well variation in cell mass.

[2] = Dynamic light scattering (DLS) analysis of dendrons; assay type: physicochemical; conditions: sample concentration 1 mg/mL, 4° C.
Experimental: PEGtides were purified on an Alliance reverse-phase high-performance liquid chromatography (RP-HPLC) system (Waters, Mass.) using a Symmetry C18 column (4.6×150 mm, 100 Å, particle size 5 μm). Following mobile phase was used: solvent A, 0.05% aqueous TFA; and solvent B, acetonitrile containing 0.05% TFA. A linear gradient of 95% to 70% of A was applied for 60 min at a flow rate of 1 mL/min. The UV absorptions were monitored at 220 and 250 nm, whereas fluorescence detector was set with excitation and emission wavelengths of 492 and 518 nm, respectively. The dendrons and there derivatives were quantified on a F-7000 fluorescence spectrophotometer (HITACHI, Japan). Mass spectra were acquired on an ABI-MDS SCIEX 4800 matrix-assisted laser desorption/ionisation-time of flight (MALDI-TOF/TOF) mass spectrometer (AB Sciex, Foster City, Calif.). Sample solutions (2 μL) were mixed with matrix solution (20 μL, 20 mg/mL sinapinic acid in 50% aqueous acetonitrile containing 0.1% TFA). This mixture (1 μL) was spotted onto sample holder and dried under a gentle stream of argon at room temperature. All spectra were recorded in positive mode using a linear acquisition method. The dynamic light scattering (DLS) experiments were performed on a Wyatt Dynapro Titan instrument (Wyatt Technology, Santa Barbara, Calif.) with sample concentration of 1 mg/mL. […]

[3] = test system: J774.E murine macrophage cells; assay: Confocal microscopy of dendron uptake; assay type: cell-based; conditions: 40 nM, 1 hr, with rhodamine B-labeled dextran and DAPI
Experimental: as §1, with “For Mannan inhibition studies, cells were pre-incubated with mannan (10 mg/mL) for 1 hr, followed by incubation with G3.0-Mannose, with or without rhodamine B-dextran/DAPI plus 10 mg/mL of mannan. After incubation, the unbound molecules were washed thrice using cold DPBS buffer. PEGtide dendron G3.0 (40 nM) (without mannose) was used as a negative control of mannose receptor-mediated cellular uptake.” left out
as §2, with “A small fraction of the lysate (about 50 μL, depending on cell density plated) was used to determine total cellular protein/well by Bradford Protein Assay. The total cellular protein/well was used to normalize the dendron amount/well to correct well-to-well variation in cell mass.” left out

With `O=C(O)CCNC(=O)[C@H](CCCCNC(=O)c1ccc2c(c1)C(=O)OC21c2ccc(O)cc2Oc2cc(O)ccc21)NC(=O)CCOCCOCCOCCOCCOCCOCCNC(=O)[C@H](CCCCNC(=O)CCNC(=O)CCOCCOCCOCCOCCOCCOCCNC(=O)[C@H](CCCCNC(=O)CCNC(=O)CCOCCOCCOCCOCCOCCOCCNC(=O)[C@H](CCCCNC(=O)CCNC(=O)CCOCCOCCOCCOCCOCCOCCNC(=S)Nc1ccc(O[C@H]2O[C@H](CO)[C@@H](O)[C@H](O)[C@@H]2O)cc1)NC(=O)CCNC(=O)CCOCCOCCOCCOCCOCCOCCNC(=S)Nc1ccc(O[C@H]2O[C@H](CO)[C@@H](O)[C@H](O)[C@@H]2O)cc1)NC(=O)CCNC(=O)CCOCCOCCOCCOCCOCCOCCNC(=O)[C@H](CCCCNC(=O)CCNC(=O)CCOCCOCCOCCOCCOCCOCCNC(=S)Nc1ccc(O[C@H]2O[C@H](CO)[C@@H](O)[C@H](O)[C@@H]2O)cc1)NC(=O)CCNC(=O)CCOCCOCCOCCOCCOCCOCCNC(=S)Nc1ccc(O[C@H]2O[C@H](CO)[C@@H](O)[C@H](O)[C@@H]2O)cc1)NC(=O)CCNC(=O)CCOCCOCCOCCOCCOCCOCCNC(=O)[C@H](CCCCNC(=O)CCNC(=O)CCOCCOCCOCCOCCOCCOCCNC(=O)[C@H](CCCCNC(=O)CCNC(=O)CCOCCOCCOCCOCCOCCOCCNC(=S)Nc1ccc(O[C@H]2O[C@H](CO)[C@@H](O)[C@H](O)[C@@H]2O)cc1)NC(=O)CCNC(=O)CCOCCOCCOCCOCCOCCOCCNC(=S)Nc1ccc(O[C@H]2O[C@H](CO)[C@@H](O)[C@H](O)[C@@H]2O)cc1)NC(=O)CCNC(=O)CCOCCOCCOCCOCCOCCOCCNC(=O)[C@H](CCCCNC(=O)CCNC(=O)CCOCCOCCOCCOCCOCCOCCNC(=S)Nc1ccc(O[C@H]2O[C@H](CO)[C@@H](O)[C@H](O)[C@@H]2O)cc1)NC(=O)CCNC(=O)CCOCCOCCOCCOCCOCCOCCNC(=S)Nc1ccc(O[C@H]2O[C@H](CO)[C@@H](O)[C@H](O)[C@@H]2O)cc1` [G3.0-Mannose] the viability at 2 h, 0.04 µM (Cell viability MTT assay) was 96.4 ± 7.81%, the “quantitative uptake in macrophage” value ([1]; 40 nM in HBSS at 37° C. for 1 hr, normalized to total cellular protein) was 699.6 ± 1.8 pmol/µg and the “specificity for mannose receptor (uptake vs non-mannosylated G3.0)” value ([1]; 40 nM, 1 hr) was 53 fold. The “uptake in presence of mannan (mannan inhibition)” value ([1]; 40 nM, 1 hr, cells pre-incubated 1 hr and co-incubated with mannan 10 mg/mL) was 7.5 ± 4.7 pmol/µg, the “hydrodynamic radius (DLS)” value [2] was 90.6 nm and the “intracellular green fluorescence (5-FAM), confocal microscopy” value [3] was “prominent only in G3.0-Mannose treated cells”.
